Measured values reported in PubChem BioAssay AID1963449 (Molecular Pharmacology Branch, DTP, NCI, 2024).
Values belong to the compound of their own block, whether it stands above or below them.

Tested on: 596521-263-R-J1-PDC complex spheroid growth
Assay: Anticancer human tumor 596521-263-R-J1-PDC patient-derived soft tissue sarcoma cell line growth inhibition [Asc]
Conditions: for IC50: curve of first compound; for viability, T/C: stronger effect = lower value
In short: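 Concentration series start at each agent's clinical Cmax, or at 10 microM when none is established, and drop in half-log steps; agents are applied alone or together to complex spheroids built with HUVEC and hMSC.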

[1] = second compound 0.0316 µM, first compound 0.00316 µM
[2] = second compound 0.0316 µM, first compound 0.01 µM
[3] = second compound 0.0316 µM, first compound 0.0316 µM
[4] = second compound 0.0316 µM, first compound 0.1 µM
[5] = second compound 0.0316 µM, first compound 0.316 µM
[6] = second compound 0.0316 µM, first compound 1 µM
[7] = second compound 0.1 µM, first compound 0.00316 µM
[8] = second compound 0.1 µM, first compound 0.01 µM
[9] = second compound 0.1 µM, first compound 0.0316 µM
[10] = second compound 0.1 µM, first compound 0.1 µM
[11] = second compound 0.1 µM, first compound 0.316 µM
[12] = second compound 0.1 µM, first compound 1 µM
[13] = second compound 0.316 µM, first compound 0.00316 µM
[14] = second compound 0.316 µM, first compound 0.01 µM
[15] = second compound 0.316 µM, first compound 0.0316 µM
[16] = second compound 0.316 µM, first compound 0.1 µM
[17] = second compound 0.316 µM, first compound 0.316 µM
[18] = second compound 0.316 µM, first compound 1 µM
[19] = second compound 1 µM, first compound 0.00316 µM
[20] = second compound 1 µM, first compound 0.01 µM
[21] = second compound 1 µM, first compound 0.0316 µM
[22] = second compound 1 µM, first compound 0.1 µM
[23] = second compound 1 µM, first compound 0.316 µM
[24] = second compound 1 µM, first compound 1 µM
[25] = second compound 3.16 µM, first compound 0.00316 µM
[26] = second compound 3.16 µM, first compound 0.01 µM
[27] = second compound 3.16 µM, first compound 0.0316 µM
[28] = second compound 3.16 µM, first compound 0.1 µM
[29] = second compound 3.16 µM, first compound 0.316 µM
[30] = second compound 3.16 µM, first compound 1 µM
[31] = second compound 10 µM, first compound 0.00316 µM
[32] = second compound 10 µM, first compound 0.01 µM
[33] = second compound 10 µM, first compound 0.0316 µM
[34] = second compound 10 µM, first compound 0.1 µM
[35] = second compound 10 µM, first compound 0.316 µM
[36] = second compound 10 µM, first compound 1 µM
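Also: spheroids exposed to compounds for 7 days.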

IC50 (second compound 0.0316 µM): > 1000 nM
IC50 (second compound 0.1 µM): > 1000 nM
IC50 (second compound 0.316 µM): > 1000 nM
IC50 (second compound 1 µM): > 1000 nM
IC50 (second compound 3.16 µM): > 1000 nM
IC50 (second compound 10 µM): > 1000 nM
Compound: CCN1CCN(Cc2ccc(Nc3ncc(F)c(-c4cc(F)c5nc(C)n(C(C)C)c5c4)n3)nc2)CC1 + Cc1c(S(C)(=O)=O)c(-c2cc(F)cc(N3CCN(c4ccc(NS(=O)(=O)c5ccc(NC(CCN6CCC(C(=O)OCCCP(=O)(O)O)CC6)CSc6ccccc6)c(S(=O)(=O)C(F)(F)F)c5)cc4)CC3)c2)c(-c2ccc(Cl)cc2)n1C(C)C
viability, T/C [1]: 94.2%
viability, T/C [2]: 95.2%
viability, T/C [3]: 92%
viability, T/C [4]: 84.3%
viability, T/C [5]: 91.4%
viability, T/C [6]: 97%
viability, T/C [7]: 93.7%
viability, T/C [8]: 91.5%
viability, T/C [9]: 94.1%
viability, T/C [10]: 81.1%
viability, T/C [11]: 88.7%
viability, T/C [12]: 82%
viability, T/C [13]: 102%
viability, T/C [14]: 79%
viability, T/C [15]: 77.8%
viability, T/C [16]: 75.7%
viability, T/C [17]: 75.3%
viability, T/C [18]: 83.8%
viability, T/C [19]: 83%
viability, T/C [20]: 73.9%
viability, T/C [21]: 78.5%
viability, T/C [22]: 70.5%
viability, T/C [23]: 87.7%
viability, T/C [24]: 67.1%
viability, T/C [25]: 68.1%
viability, T/C [26]: 69.6%
viability, T/C [27]: 63.3%
viability, T/C [28]: 59.6%
viability, T/C [29]: 66.8%
viability, T/C [30]: 66.4%
viability, T/C [31]: 58.1%
viability, T/C [32]: 57.1%
viability, T/C [33]: 56%
viability, T/C [34]: 54.8%
viability, T/C [35]: 57%
viability, T/C [36]: 55.1%

IC50 (second compound 0.0316 µM): > 100 nM
IC50 (second compound 0.1 µM): > 100 nM
IC50 (second compound 0.316 µM): > 100 nM
IC50 (second compound 1 µM): > 100 nM
IC50 (second compound 3.16 µM): 38.5 nM
IC50 (second compound 10 µM): 1.07 nM
Compound: Cn1ncnc1[C@H]1c2n[nH]c(=O)c3cc(F)cc(c23)N[C@@H]1c1ccc(F)cc1 + Cc1c(S(C)(=O)=O)c(-c2cc(F)cc(N3CCN(c4ccc(NS(=O)(=O)c5ccc(NC(CCN6CCC(C(=O)OCCCP(=O)(O)O)CC6)CSc6ccccc6)c(S(=O)(=O)C(F)(F)F)c5)cc4)CC3)c2)c(-c2ccc(Cl)cc2)n1C(C)C
viability, T/C (second compound 0.0316 µM, first compound 0.000316 µM): 97.5%
viability, T/C (second compound 0.0316 µM, first compound 0.001 µM): 112%
viability, T/C [1]: 81.9%
viability, T/C [2]: 94.1%
viability, T/C [3]: 87.4%
viability, T/C [4]: 79.3%
viability, T/C (second compound 0.1 µM, first compound 0.000316 µM): 90.6%
viability, T/C (second compound 0.1 µM, first compound 0.001 µM): 97.8%
viability, T/C [7]: 94.3%
viability, T/C [8]: 81.6%
viability, T/C [9]: 78.5%
viability, T/C [10]: 74.5%
viability, T/C (second compound 0.316 µM, first compound 0.000316 µM): 88.5%
viability, T/C (second compound 0.316 µM, first compound 0.001 µM): 86.6%
viability, T/C [13]: 77.7%
viability, T/C [14]: 82.8%
viability, T/C [15]: 75.5%
viability, T/C [16]: 73.4%
viability, T/C (second compound 1 µM, first compound 0.000316 µM): 90.9%
viability, T/C (second compound 1 µM, first compound 0.001 µM): 85.3%
viability, T/C [19]: 85.2%
viability, T/C [20]: 65%
viability, T/C [21]: 68.4%
viability, T/C [22]: 61.1%
viability, T/C (second compound 3.16 µM, first compound 0.000316 µM): 58.7%
viability, T/C (second compound 3.16 µM, first compound 0.001 µM): 69.5%
viability, T/C [25]: 57.3%
viability, T/C [26]: 57.4%
viability, T/C [27]: 52.6%
viability, T/C [28]: 40.2%
viability, T/C (second compound 10 µM, first compound 0.000316 µM): 54.1%
viability, T/C (second compound 10 µM, first compound 0.001 µM): 50.3%
viability, T/C [31]: 43.6%
viability, T/C [32]: 42%
viability, T/C [33]: 42%
viability, T/C [34]: 28.9%

IC50 (second compound 0.0316 µM): 349 nM
IC50 (second compound 0.1 µM): 236 nM
IC50 (second compound 0.316 µM): 209 nM
IC50 (second compound 1 µM): 172 nM
IC50 (second compound 3.16 µM): 124 nM
IC50 (second compound 10 µM): 55.5 nM
Compound: O=C(c1ccc(F)c(F)c1Nc1ccc(I)cc1F)N1CC(O)([C@@H]2CCCCN2)C1 + Cc1c(S(C)(=O)=O)c(-c2cc(F)cc(N3CCN(c4ccc(NS(=O)(=O)c5ccc(NC(CCN6CCC(C(=O)OCCCP(=O)(O)O)CC6)CSc6ccccc6)c(S(=O)(=O)C(F)(F)F)c5)cc4)CC3)c2)c(-c2ccc(Cl)cc2)n1C(C)C
viability, T/C [1]: 96%
viability, T/C [2]: 93%
viability, T/C [3]: 93.3%
viability, T/C [4]: 74.9%
viability, T/C [5]: 52.7%
viability, T/C [6]: 30.2%
viability, T/C [7]: 101%
viability, T/C [8]: 102%
viability, T/C [9]: 103%
viability, T/C [10]: 70.2%
viability, T/C [11]: 45.5%
viability, T/C [12]: 29.9%
viability, T/C [13]: 87.1%
viability, T/C [14]: 84%
viability, T/C [15]: 87.1%
viability, T/C [16]: 71.1%
viability, T/C [17]: 38.1%
viability, T/C [18]: 22.9%
viability, T/C [19]: 83.3%
viability, T/C [20]: 70.9%
viability, T/C [21]: 84.8%
viability, T/C [22]: 66.3%
viability, T/C [23]: 31.4%
viability, T/C [24]: 21.8%
viability, T/C [25]: 62.8%
viability, T/C [26]: 71.4%
viability, T/C [27]: 62.2%
viability, T/C [28]: 55.8%
viability, T/C [29]: 26.7%
viability, T/C [30]: 16.8%
viability, T/C [31]: 54.1%
viability, T/C [32]: 57.4%
viability, T/C [33]: 55%
viability, T/C [34]: 45%
viability, T/C [35]: 26.8%
viability, T/C [36]: 18.6%
